Experimental data from patent US7608577B2, “Peptidyl ketones as inhibitors of DPIV” (OSI Pharmaceuticals, Inc., priority 2001, dated 2009).

Assays:
[1] = molecular target: T1, dipeptidyl peptidase IV from porcine kidney (Sus scrofa, UniProt P22411); test: Ki determination, DPIV inhibition (inhibitor released from prodrug by APN); type: biochemical; settings: for Ki: porcine kidney DPIV, substrate Gly-Pro-pNA, APN added to release inhibitor, HEPES pH7.6, read-out: Ki; for T1/2 (half-life, from enzyme activity versus reaction time): same assay as Ki, unstable competitive inhibitor
T1 construct: dipeptidyl peptidase IV from porcine kidney with a specific activity against glycylprolyl-4-nitroaniline of 37.5 U/mg; from tissue; host or cells: porcine kidney
T1 sequence (P22411 whole entry): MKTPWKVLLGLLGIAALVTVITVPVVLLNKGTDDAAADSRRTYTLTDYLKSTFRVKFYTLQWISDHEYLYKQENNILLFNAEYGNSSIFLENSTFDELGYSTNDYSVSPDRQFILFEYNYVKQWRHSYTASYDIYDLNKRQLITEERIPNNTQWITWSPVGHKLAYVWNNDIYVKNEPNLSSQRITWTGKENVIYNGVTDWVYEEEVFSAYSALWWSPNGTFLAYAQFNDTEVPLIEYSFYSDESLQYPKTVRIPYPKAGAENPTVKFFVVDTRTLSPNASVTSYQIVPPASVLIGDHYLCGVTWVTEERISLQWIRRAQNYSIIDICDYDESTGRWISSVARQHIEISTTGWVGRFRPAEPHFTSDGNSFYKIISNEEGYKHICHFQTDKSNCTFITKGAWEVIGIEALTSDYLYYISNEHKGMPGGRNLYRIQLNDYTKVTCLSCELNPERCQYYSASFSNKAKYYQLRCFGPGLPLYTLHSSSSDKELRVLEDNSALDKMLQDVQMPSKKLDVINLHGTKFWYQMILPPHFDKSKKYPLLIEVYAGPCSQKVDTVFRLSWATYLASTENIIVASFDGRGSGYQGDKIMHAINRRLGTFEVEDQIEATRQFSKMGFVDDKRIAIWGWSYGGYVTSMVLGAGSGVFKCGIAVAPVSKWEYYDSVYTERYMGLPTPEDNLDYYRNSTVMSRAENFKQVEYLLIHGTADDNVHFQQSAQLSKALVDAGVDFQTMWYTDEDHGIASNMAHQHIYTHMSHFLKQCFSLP
Experimental: 500 μl test compound in a concentration range of 1*10^−5 M-1*10^−11M were admixed with and 500 μl HEPES buffer (40 mM, pH7.6; ion strength=0.125) and 20 μl of diluted DPIV. Release of the inhibitor from the prodrug as well the monitoring reaction (DPIV-catalyzed hydrolysis of Gly-Pro-pNA) were started by addition of a mixture of 10 μl of APN stock solution (4.9 mg/ml, Sigma, Taufkirchen, Germany) with 250 μl of the substrate (Gly-Pro-pNA, 0.05-4 mM). Development of yellow color due to 4-nitroaniline release were monitored at λ=405 nm for up to 180 min using UV1 Spectrometer (ThermoSpectronic).
The Ki-values were calculated by fitting the first derivative of the time-progress curves using Graphit (v.4.0.13, Erithacus Software, Ltd, UK) and an equation for an unstable competitive inhibitor.
The half-life (t1/2) was calculated by plotting the enzyme activity versus reaction time.

[2] = molecular target: T2, Dipeptidyl peptidase I (DP I, cathepsin C) (Rattus norvegicus, UniProt P80067); test: Cross reacting enzymes: dipeptidyl peptidase I; type: biochemical; settings: MES buffer pH5.6, 30° C.
T2 construct: purchased Qiagen GmbH, Hilden, Germany
T2 sequence (P80067 25-462): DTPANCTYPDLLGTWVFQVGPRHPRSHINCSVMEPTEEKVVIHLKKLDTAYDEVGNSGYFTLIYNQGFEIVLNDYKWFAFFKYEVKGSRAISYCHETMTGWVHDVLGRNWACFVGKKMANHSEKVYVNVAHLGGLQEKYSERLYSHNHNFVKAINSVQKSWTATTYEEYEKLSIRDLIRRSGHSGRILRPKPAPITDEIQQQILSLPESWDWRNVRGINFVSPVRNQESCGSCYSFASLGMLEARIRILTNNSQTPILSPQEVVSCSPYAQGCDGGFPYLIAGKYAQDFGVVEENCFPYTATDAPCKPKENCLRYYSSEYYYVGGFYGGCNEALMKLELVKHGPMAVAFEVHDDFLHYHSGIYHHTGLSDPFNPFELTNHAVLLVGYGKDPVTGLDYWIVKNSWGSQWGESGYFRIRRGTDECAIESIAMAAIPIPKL
Experimental: DP I or cathepsin C is a lysosomal cysteine protease which cleaves off dipeptides from the N-terminus of their substrates (Gutman, H. R. & Fruton, J. S., 1948, J. Biol: Chem., 174, 851-858). It is classified as a cysteine protease. The enzyme used was purchased from Qiagen (Qiagen GmbH, Hilden, Germany). In order to get a fully active enzyme, the enzyme was diluted 1000 fold in MES buffer pH5.6 (40 mM MES, 4 mM DTT, 4 mM KCl, 2 mM EDTA, 0.015% Brij) and pre-incubated for 30 min at 30° C.
50 μl solution with the test compounds in a concentration range of 1*10^−5 M-1*10^−7 M was admixed with 110 μl buffer-enzyme-mixture. The assay mixture was pre-incubated at 30° C. for 15 min. After pre-incubation, 100 μl histidylseryl-βnitroaniline (2*10^−5M) was added and measurement of yellow color development due to β-nitroaniline release was performed at 30° C. and […] for 10 min, using a plate reader (HTS7000 plus, Applied Biosystems, Weiterstadt, Germany).
The IC 50-values were calculated using Graphit 4.0.15 (Erithacus Software, Ltd., UK).

[3] = tested on: diabetic Zucker rats; test: Glucose tolerance (OGTT) in diabetic Zucker rats; type: in vivo, Zucker rats (fa/fa); settings: for Improvement: vs AUC control
Experimental: N=30 male Zucker rats (fa/fa), mean age 11 weeks (5-12 weeks), mean body weight 350 g (150-400 g), were purchased from Charles River (Sulzfeld, Germany). They were kept for >12 weeks until all the fatty Zucker rats had the characteristics of manifest Diabetes mellitus.
Animals were kept single-housed under conventional conditions with controlled temperature (22±2° C.) on a 12/12 hours light/dark cycle (light on at 06:00 a.m.). Standard pellets (ssniff®, Soest, Germany) and tap water acidified with HCl were allowed ad libitum.
Fatty Zucker rats, 17-24 weeks old, adapted to the housing conditions, were well prepared for the tests. Catheters were implanted into the carotid artery of fatty Zucker rats under general anaesthesia (i.p. injection of 0.25 ml/kg b.w. Rompun® [2%], BayerVital, Germany and 0.5 ml/kg b.w. Ketamin 10, Atarost GmbH & Co., Twistringen, Germany). The animals were allowed to recover for one week. The catheters were flushed with heparin-saline (100 IU/ml) three times per week. In case of catheter dysfunction, a second catheter was inserted into the contra-lateral carotid artery of the respective rat. After one week of recovery from surgery, this animal was reintegrated into the study. In case of dysfunction of the second catheter, the animal was withdrawn from the study. A new animal was recruited and the experiments were continued in the planned sequence, beginning at least 7 days after catheter implantation.
Fatty Zucker rats with intact catheter function were given in random order placebo (1 ml saline, 0.154 mol/l; N=9 animals as control), or test substance, solved in 1 ml saline (N=6 animals in each test group).
After overnight fasting, the fatty Zucker rats were given placebo and test substance, respectively, via feeding tube orally (15 G, 75 mm; Fine Science Tools, Heidelberg, Germany) at −10 min. An oral glucose tolerance test (OGTT) with 2 g/kg b.w. glucose as a 40% solution (B. Braun Melsungen, Melsungen, Germany) was implemented at ±0 min. The glucose was administered via a second feeding tube. Arterial blood samples from the carotid catheter were collected at −30 min, −15 min, ±0 min and at 5, 10, 15, 20, 30, 40, 60, 90 and 120 min into 20 μl glass capillaries, which were placed in standard tubes filled with 1 ml solution for hemolysis (blood glucose measurement). […]
Blood glucose: Glucose levels were measured using the glucose oxidase procedure (Super G Glukosemeβgerät; Dr. Müller Gerätebau, Freital, Germany).

Ki [1] | T1/2 (half-life, from enzyme activity versus reaction time) [1] | IC50 [2] | DP I IC50 [2] | Structure (SMILES) | AUC test compound ([3]; OGTT, 5 mg/kg b.w. oral) | Improvement ([3]; OGTT, 5 mg/kg b.w. oral) | AUC test compound ([3]; OGTT, 15 mg/kg b.w. oral) | Improvement ([3]; OGTT, 15 mg/kg b.w. oral) | AUC test compound ([3]; OGTT, 50 mg/kg b.w. oral) | Improvement ([3]; OGTT, 50 mg/kg b.w. oral) | AUC test compound ([3]; OGTT 2 g/kg glucose, 100 mg/kg b.w. oral) | Improvement ([3]; OGTT, 100 mg/kg b.w. oral)
1.05 nM | 10.8 min | 120000 nM | – | Br.CC(=O)OCC(=O)[C@@H]1CCCN1C(=O)[C@@H](NC(=O)[C@H](C)N)C(C)C [H-Ala-Val-Pro-CH2O—CO—CH3*HBr, 2-[(Acetyloxy-methyl)carbonyl]-1-N-[(L)-Alanyl-(L)-Valinyl]-(2S)-pyrrolidine hydrobromide] | 309.1 mmol·min/L | 44.9% | 300.9 mmol·min/L | 46.4% | 254.7 mmol·min/L | 54.6% | – | –
0.536 nM | 15.1 min | 316000 nM | – | Br.CC(C)[C@H](NC(=O)[C@H](C)N)C(=O)N1CCC[C@H]1C(=O)COC(=O)c1ccccc1 [H-Ala-Val-Pro-CO—CH2O—CO—Ph*HBr, 2-[(Benzoyloxy-methyl)carbonyl]-1-N-[{(L)-Alanyl}-(L)-Valinyl]-(2S)-pyrrolidine hydrobromide] | 209.1 mmol·min/L | 59.5% | 245.4 mmol·min/L | 52.6% | 160.5 mmol·min/L | 69.0% | – | –
47.6 nM | 12.4 min | – | no inhibition | Br.CC(=O)[C@@H]1CCCN1C(=O)[C@@H](NC(=O)[C@H](C)N)C(C)C [H-Ala-Val-Pro-Me*HBr, 2-Methylcarbonyl-1-N-[(L)-Alanyl-(L)-Valinyl]-(2S)-pyrrolidine hydrobromide] | – | – | – | – | – | – | 394.4 mmol·min/L | 48.5%
